How the values were obtained:
[1] = system: NO production in mouse BV2 cell line; assay: NO (nitrite) production in LPS-treated BV2 cells, Griess reagent; type: cell-based
Procedure: (§1) A mouse BV2 cell line was stored and maintained in a humidified incubator at 37° C. under a 5% CO2 condition using a DMEM culture medium supplemented with 10% FBS, 100 U/ml of penicillin and 100 μg/ml of streptomycin, was trypsinized, and was subcultured.
In the present disclosure, the amount of nitrite produced was measured to determine the anti-inflammatory activity of the Fomes fomentarius fraction. Nitrite is a major stable product of nitric oxide (NO), one of the inflammatory mediators, and was measured by using Griess reagent.
First, the cells were cultured at 5×10^5 cells/ml in a 6-well plate. They were treated with Fomes fomentarius extracts having various concentrations (5, 20, 50, and 100 μg/ml) and then reacted for 24 hours in the presence or absence of LPS ([…]). DMEM medium for BV2 cells and the fresh medium containing LPS (1 μg/ml) and the sample were treated at the same time and cultured for 24 hours. The amount of NO produced was determined using Griess reagent in which 100 μl of cell culture supernatant and 100 μl of Griess reagent [1% (w/v) sulfanilamide, 0.1% (w/v) naphthyl ethylenediamine in 2.5% (v/v) phosphoric acid] were mixed and reacted on a 96-well plate for 10 minutes, and then an ELISA reader was used to measure absorbance at 540 nm. Standard concentration curves were obtained by stepwise dilution of sodium nitrite (NaNO2).

[2] = DPPH radical scavenging activity
Procedure: The present experiment used the property that the hydrazyl of diphenylpicrylhydrazyl (DPPH) used in the present experiment has a property of easily accepting a hydrogen atom since the nitrogen atom is unstable, so as to react with the antioxidant material to accept the hydrogen atom to lose its own orthochromatism.
(§2) First, in order to measure DPPH radical scavenging activity of the Fomes fomentarius fraction, 1.9 ml of 0.2 mM DPPH solution (99.5% ethanol) was added to 0.1 ml of solutions (control: 99.5% ethanol) in which the concentrated dried material of each Fomes fomentarius substance was prepared at 7 concentrations of 10, 20, 40, 80, 160, 320 and 640 μg/ml, respectively. The mixture was shaken with a vortex mixer for 10 seconds and then incubated at 37° C. for 30 minutes. Then, the absorbance was measured at 517 nm using a spectrophotometer.
As a positive control drug, L-ascorbic acid was prepared at […] of 10, 20, 40, 80, 160, 320, and 640 μg/mL (99.5% ethanol).
The present inventors measured DPPH radicals scavenging activity in the same manner as in Example <2-2> above using nonadecanone (2-nonadecanone) and docosenol (cis-13-Docosenol) compounds found in the above and Fomes fomentarius CHCl3 fraction of the present disclosure.
as §2, with “Acer tegmentosum maxim extract,” for “Fomes fomentarius fraction,”, “Acer tegmentosum maxim material” for “Fomes fomentarius substance”
As a positive control, L-ascorbic acid was prepared at […] of 10, 20, 40, 80, 160, 320, and 640 μg/mL (99.5% ethanol).
as §2, with “berchemia berchemiaefolia extract,” for “Fomes fomentarius fraction,”, “berchemia berchemiaefolia material” for “Fomes fomentarius substance”
as §2, with “Lithospermum erythrorhizon extract,” for “Fomes fomentarius fraction,”, “Lithospermum erythrorhizon material” for “Fomes fomentarius substance”

IL-6 = IL-6 in LPS-treated BV2 cells; type: cell-based, mouse; design: unit not given here
Procedure: as §1
(§3) BV2 cells were placed in a 6-well plate at 7.5×10^5 cells/well, and stabilized at 37° C. and 5.0% CO2 for 12 hours. After that, LPS and the Fomes fomentarius CHCl3 fractions, the nonadecanone (2-Nonadecanone) or the docosenol (cis-13-Docosenol) compounds were placed according to groups and were incubated for 1 hour. The cell culture was collected and used for cytokine analysis. All the cell culture was removed, and then 1 ml of dPBS was dispensed to each well to wash and remove the wells. 200 μl of the lysis buffer was dispensed per well and the cells attached to the bottom of the well were removed with a cell scriper, and then were slowly mixed and reacted for […] on ice at 4° C. The cells were removed with a scriper again and all the lysis solution was collected. The collected lysis solution was centrifuged at 15,000 rpm for 15 minutes at 4° C. so that only the supernatant was collected. In order to plot standard curves for protein quantification, a standard BSA solution ([…]) and a dilution were prepared in which bradford solution and D.W. were diluted with 4:1. After the bradford dilution was dispensed in each 200 μl to 96-well, the standard BSA solution and the cell lysis supernatant were dispersed in a volume of 10 μl per well, and then they were mixed by pipetting. After 10 minutes, the protein was quantitated by measuring the absorbance at 595 nm in a reader. The subsequent procedures were carried out in the same manner as in the quantitative analysis of the protein of Example 3-3.

NF-κB = assay: Western blotting of LPS-induced NF-κB phosphorylation in BV2 cells; type: cell-based, mouse
Procedure: as §3

Compound	NO production (nitrite) ([1]; 5 μg/ml)	NO production (nitrite) ([1]; 20 μg/ml)	NO production (nitrite) ([1]; 50 μg/ml)	NO production (nitrite) ([1]; 100 μg/ml)	DPPH radical scavenging activity (% antioxidant activity) ([2]; 10 μg/mL) [%]	DPPH radical scavenging activity (% antioxidant activity) ([2]; 20 μg/mL) [%]	DPPH radical scavenging activity (% antioxidant activity) ([2]; 40 μg/mL) [%]	DPPH radical scavenging activity (% antioxidant activity) ([2]; 80 μg/mL) [%]	DPPH radical scavenging activity (% antioxidant activity) ([2]; 160 μg/mL) [%]	DPPH radical scavenging activity (% antioxidant activity) ([2]; 320 μg/mL) [%]	DPPH radical scavenging activity (% antioxidant activity) ([2]; 640 μg/mL) [%]	IL-6 level (IL-6; 5 μg/ml)	IL-6 level (IL-6; 20 μg/ml)	IL-6 level (IL-6; 50 μg/ml)	IL-6 level (IL-6; 100 μg/ml)	p-NF-κB/NF-κB ratio (%), expression ratio (vehicle 100%) (NF-κB; 5 μg/ml)	p-NF-κB/NF-κB ratio (%), expression ratio (vehicle 100%) (NF-κB; 20 μg/ml)	p-NF-κB/NF-κB ratio (%), expression ratio (vehicle 100%) (NF-κB; 50 μg/ml)	p-NF-κB/NF-κB ratio (%), expression ratio (vehicle 100%) (NF-κB; 100 μg/ml)
CCCCCCCC/C=C\CCCCCCCCCCCCO [docosenol, cis-13-Docosenol]	8.04±0.55	5.56±0.61	4.42±0.48	2.76±40.59	1.3±0.4	2.6±0.2	5.8±0.6	7.7±0.6	6.6±0.7	8.8±1.1	10.6±0.9	301.56±7.6	249.35±10.1	171.68±5.5	138.51±6.8	about 41%	about 28%	about 8%	
CCCCCCCCCCCCCCCCCC(C)=O [nonadecanone, 2-Nonadecanone]	2.98±0.78	2.35±0.68	1.99±0.39	1.62±0.41	5.6±0.9	8.9±0.8	11.6±1.1	13.5±1.4	14.6±1.0	16.8±2.1	20.5±1.8	451.25±6.9	441.61±7.1	389.64±10.1	351.85±8.7	about 35%	about 21%	about 15%	about 12%

Reference: patent US11338004B2, “Composition for preventing or treating cranial nerve disease comprising fomes fomentarius extract, fraction thereof, or compound isolated therefrom as active ingredient” (priority 2015, dated 2022)
